# Results from patent publication US20230285606A1, “METHODS AND AGENTS FOR THE DETECTION AND TREATMENT OF CANCER” (CASE WESTERN RESERVE UNIVERSITY, priority 2020, published 2023).
# No end group written: not given here.
# Key:
# [1] = system: heterotopic xenograft flank U87 tumor implants; test: In vivo fluorescence imaging of heterotopic xenograft U87 flank tumors; details: mice with U87 flank tumors; fluorophore-conjugated peptide injected via tail vein; FIG. 1/FIG. 2
# Procedure: (§1) The human U87-MG and LN-229 glioma cell line was purchased from American Type Culture Collection (Manassas, Va., USA) and cultured. NIH athymic nude mice (5-8 weeks and 20-25 g on arrival; NCI-NIH) were maintained at the Athymic Animal Core Facility at Case Western Reserve University according to institutional policies. All animal protocols were approved by the Institutional Animal Care and Use Committee (IACUC). The cells were diluted in a 1:1 mixture of PBS and BD MATRIGEL Matrix (BD Biosciences, Franklin Lakes, N.J., USA), and injected into the right flank of nude athymic mice (NCr-nu/+, NCr-nu/nu, 20-25 g each). The Matrigel-cell mixture was loaded into a 1-ml syringe fitted with a 26-gauge needle and kept on ice. The mixture was injected subcutaneously in the right flank region of the mouse. Flank tumors were grown for 2 to 3 weeks. Each flank was implanted with 1.4-2×10^6 cells. To correlate tumor position with GFP fluorescence, mice were imaged using the Perkin-Elmer MAESTRO FLEX In vivo Imaging System. For in vivo analyses, the mice were anesthetized with inhaled isoflurane/oxygen and imaged. For ex vivo analyses, mice were sacrificed by decapitation. […]
# (§2) Nude mice with heterotopic (flank) tumors were typically imaged 3 to 6 weeks following tumor initiation. […] Average radiant intensity units, calculated by the LivingImage software, were obtained for each ROI. […]
# [2] = system: heterotopic xenograft flank U87 tumor implants overexpressing PTPmu; test: In vivo fluorescence imaging of heterotopic xenograft U87 flank tumors overexpressing PTPmu; details: mice with U87 flank tumors overexpressing PTPmu; FIG. 2
# Procedure: as §1, §2
Substance,in vivo average radiant efficiency [1],in vivo average radiant efficiency [2]
"Peptide 2: SBK linked to a fluorophore with a polyglycine peptide spacer (GEGDDFNWEQVNTLTKPTSD; also: fluorophore linked via polyglycine spacer, not defined)","increased average radiant efficiency compared to the first agent, without a spacer, and the control agent",–
"Peptide 3: SBK linked to a fluorophore with a glycine/serine spacer (GEGDDFNWEQVNTLTKPTSD; also: fluorophore linked via glycine/serine spacer, not defined)",increased average radiant efficiency compared to the second agent,increased average radiant efficiency compared to the second agent
